Data reported in patent US8865222B2, “Beta-casein assemblies for enrichment of food and beverages and methods of preparation thereof” (Technion Research and Development Foundation Ltd., priority 2008, dated 2014).

Assays:
Format in all cases: physicochemical
[1] = Vitamin D stability in aqueous solution, n-hexane extraction and Reversed Phase HPLC; conditions: pH 7 and pH 2.5, room temperature
Procedure: We further tested the stability of vitamin D:beta-casein solutions in both acidic and neutral pH environments. The solutions prepared were left for a week at room temperature and the sampling was made once a day (in the first three days of the experiment) and once every two days (toward the end of the experiment). Vitamin D was extracted by n-hexane from each sample and its amount was analyzed using Reversed Phase HPLC. The amount of the vitamin left was compared to the amount extracted at time 0. The experiment was performed at two different pH values (pH 7 and pH 2.5).

[2] = Turbidity (solution absorbance at 600 nm); conditions: vitamin D 82.5 μg/ml, in the absence of beta-casein, pH 7.0 and 2.5
[3] = Visual comparison of vitamin D solubilization, clarity and precipitation with and without beta-casein

For `C=C1CC[C@H](O)C/C1=C/C=C1\CCC[C@]2(C)[C@@H]([C@H](C)/C=C/[C@H](C)C(C)C)CC[C@@H]12` [vitamin D, ergocalciferol], the “vitamin D stability (amount left versus time 0)” value ([1]; in the presence of beta-casein, one week) was “degradation process is much slower”, the “vitamin D stability (amount left versus time 0)” value ([1]; vitamin D alone, aqueous solution) was “degrades rapidly leaving almost no trace after only two days” and the turbidity [2] was “sudden increase in turbidity value”. The precipitation ([3]; PBS, in the absence of beta-casein, after a week) was “not observed”, the precipitation ([3]; PBS, in the presence of beta-casein, after a week) was “not observed” and the “aggregation out of solution” value ([3]; lactic acid buffer pH 2.5, no beta-casein, after a week) was “white precipitation”. The precipitation ([3]; lactic acid buffer pH 2.5 with beta-casein 0.5% wt, molar ratio 2:1, after a week) was “not observed”.
